Experimental data taken from ChEMBL document CHEMBL1201862, “PubChem BioAssay data set” (2004).
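In this assay, cells in 96-well plates receive the compound at five concentrations for 48 hours. Endpoints are linearly interpolated between the surrounding concentrations. At the GI50, growth is halved.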 Active and inactive are the calls of the source. Rule as the data show it: active = GI50 up to about 1.1 µM and inactive = higher.

Experiments:
Test in all cases: inhibition of tumour cell growth, NCI panel, 48 h
K562 = tested on: K562
UACC-257 = tested on: UACC-257
HCT-15 = tested on: HCT-15
OVCAR-3 = tested on: OVCAR-3
UO-31 = tested on: UO-31
KM12 = tested on: KM12
RXF 393 = tested on: RXF 393
OVCAR-8 = tested on: OVCAR-8
HOP-62 = tested on: HOP-62
SN12C = tested on: SN12C
NCI-H460 = tested on: NCI-H460
SK-MEL-28 = tested on: SK-MEL-28
OVCAR-4 = tested on: OVCAR-4
HCT-116 = tested on: HCT-116
CAKI-1 = tested on: CAKI-1
NCI-H522 = tested on: NCI-H522
SW-620 = tested on: SW-620
T47D = tested on: T47D
DU-145 = tested on: DU-145
OVCAR-5 = tested on: OVCAR-5

Row | Structure (SMILES) | GI50 (K562) | GI50 (UACC-257) | GI50 (HCT-15) | GI50 (OVCAR-3) | GI50 (UO-31) | GI50 (KM12) | GI50 (RXF 393) | GI50 (OVCAR-8) | GI50 (HOP-62) | GI50 (SN12C) | GI50 (NCI-H460) | GI50 (SK-MEL-28) | GI50 (OVCAR-4) | GI50 (HCT-116) | GI50 (CAKI-1) | GI50 (NCI-H522) | GI50 (SW-620) | GI50 (T47D) | GI50 (DU-145) | GI50 (OVCAR-5)
1 | CNC(=O)OC(COC)CN1CCN(c2ccccc2C)CC1 (stereo unspecified) | > 10 µM (inactive) | > 10 µM (inactive) | > 10 µM | > 10 µM (inactive) | > 10 µM (inactive) | > 10 µM (inactive) | > 10 µM (inactive) | > 10 µM (inactive) | > 10 µM (inactive) | > 10 µM (inactive) | > 10 µM (inactive) | > 10 µM (inactive) | > 10 µM (inactive) | > 10 µM (inactive) | > 10 µM (inactive) | > 10 µM (inactive) | > 10 µM (inactive) | > 10 µM (inactive) | > 10 µM (inactive) | –
2 | CCOC(=O)/C(=C\c1ccnc2ccccc12)P(=O)(OCC)OCC | 5.89 µM (inactive) | 3.73 µM (inactive) | 1.47 µM | 1.64 µM (inactive) | – | 4.01 µM (inactive) | 2.62 µM (inactive) | 1.81 µM (inactive) | 1.93 µM (inactive) | 3.01 µM (inactive) | 3.48 µM (inactive) | 1.57 µM (inactive) | 2.26 µM (inactive) | 1.99 µM (inactive) | 2.25 µM (inactive) | 1.33 µM (inactive) | 2.52 µM (inactive) | 3.18 µM (inactive) | 2.71 µM (inactive) | 2.25 µM (inactive)
3 | C/C(=C\COc1ccc2ccc(=O)oc2c1)CCC(=O)C(C)(C)O | 16.2 µM (inactive) | 28 µM (inactive) | 17.1 µM | 17.9 µM (inactive) | 28.4 µM (inactive) | 18.5 µM (inactive) | 14.4 µM (inactive) | 23.3 µM (inactive) | 44 µM (inactive) | 24.2 µM (inactive) | 31.8 µM (inactive) | 39.9 µM (inactive) | 51.9 µM (inactive) | 15.6 µM (inactive) | 29.2 µM (inactive) | 19.4 µM (inactive) | 19.5 µM (inactive) | 29.9 µM (inactive) | 32.1 µM (inactive) | 40.8 µM (inactive)
4 | COC(=O)C1Cc2c(OC)ccc(OC)c2C(O)C1C(=O)OC (stereo unspecified) | > 100 µM (inactive) | > 100 µM (inactive) | – | > 100 µM (inactive) | > 100 µM (inactive) | > 100 µM (inactive) | > 100 µM (inactive) | > 100 µM (inactive) | > 100 µM (inactive) | > 100 µM (inactive) | > 100 µM (inactive) | > 100 µM (inactive) | > 100 µM (inactive) | > 100 µM (inactive) | > 100 µM (inactive) | > 100 µM (inactive) | > 100 µM (inactive) | > 100 µM (inactive) | > 100 µM (inactive) | > 100 µM (inactive)
5 | Cc1cc(S(=O)(=O)[N-]/C(=N/S(=O)(=O)c2ccc(Cl)cc2)[n+]2ccc(N(C)C)cc2)c(S)cc1Cl | 1.92 µM (inactive) | > 100 µM (inactive) | 75.7 µM | 56.1 µM (inactive) | 79.4 µM (inactive) | > 100 µM (inactive) | 84.1 µM (inactive) | > 100 µM (inactive) | 43.5 µM (inactive) | – | 48.3 µM (inactive) | > 100 µM (inactive) | 55.5 µM (inactive) | 20.5 µM (inactive) | > 100 µM (inactive) | 28.7 µM (inactive) | 58.3 µM (inactive) | > 100 µM (inactive) | > 100 µM (inactive) | 61.5 µM (inactive)
6 | CN(/N=C/c1ccc(OCc2cccc(COc3ccc(C=O)cc3)n2)cc1)c1cnn(-c2ccc(Cl)cc2Cl)c(=O)c1Cl | > 100 µM (inactive) | > 100 µM (inactive) | > 100 µM | > 100 µM (inactive) | > 100 µM (inactive) | > 100 µM (inactive) | 21.5 µM (inactive) | > 100 µM (inactive) | 17.7 µM (inactive) | > 100 µM (inactive) | > 100 µM (inactive) | > 100 µM (inactive) | 6.9 µM (inactive) | > 100 µM (inactive) | > 100 µM (inactive) | > 100 µM (inactive) | > 100 µM (inactive) | > 100 µM (inactive) | > 100 µM (inactive) | > 100 µM (inactive)
7 | CS(=O)(=O)N1CC(CCl)c2ccc(O)cc21 (stereo unspecified) | 2.47 µM (inactive) | 2.44 µM (inactive) | 3.15 µM | 2.95 µM (inactive) | 2.32 µM (inactive) | 2.46 µM (inactive) | 1.4 µM (inactive) | 2.08 µM (inactive) | 3.56 µM (inactive) | 2.91 µM (inactive) | 2.9 µM (inactive) | 3.4 µM (inactive) | 2.86 µM (inactive) | 2.71 µM (inactive) | 2.42 µM (inactive) | 1.47 µM (inactive) | 2.6 µM (inactive) | 7.4 µM (inactive) | 3.46 µM (inactive) | 3.63 µM (inactive)
